In ChEMBL document CHEMBL3734703, “(E)-2-Cyano-3-(substituted phenyl)acrylamide analogs as potent inhibitors of tyrosinase: A linear β-phenyl-α,β-unsaturated carbonyl scaffold” (Bioorg Med Chem, 2015) one finds inhibition and viability data, which are given here for two compounds.

Calls of active or inactive are those of the source. The rule behind the calls is not given here.

The test system of series [1] is B16-F10. Put plainly: Inhibition of alpha-MSH-mediated melanin biosynthesis in mouse B16F10 cells at 25 uM after 24 hrs. Type of series: functional, cell-based.
Series [2] in a line: Cytotoxicity against mouse B16F10 cells assessed as cell viability at 25 uM after 24 hrs by MTT assay relative to control. Type of series: cell-based, B16-F10. The settings on record: read-out: Activity. (Formazan colour is commonly taken as a measure of viable cells.)
Series [3] can be described thus: Cytotoxicity against mouse B16F10 cells assessed as cell viability at 10 uM after 24 hrs by MTT assay relative to control. Type of series: cell-based, B16-F10. The settings on record: read-out: Activity.
The target in series [4] is T1, Tyrosinase (Agaricus bisporus) (UniProt O42713).
T1 sequence (whole entry): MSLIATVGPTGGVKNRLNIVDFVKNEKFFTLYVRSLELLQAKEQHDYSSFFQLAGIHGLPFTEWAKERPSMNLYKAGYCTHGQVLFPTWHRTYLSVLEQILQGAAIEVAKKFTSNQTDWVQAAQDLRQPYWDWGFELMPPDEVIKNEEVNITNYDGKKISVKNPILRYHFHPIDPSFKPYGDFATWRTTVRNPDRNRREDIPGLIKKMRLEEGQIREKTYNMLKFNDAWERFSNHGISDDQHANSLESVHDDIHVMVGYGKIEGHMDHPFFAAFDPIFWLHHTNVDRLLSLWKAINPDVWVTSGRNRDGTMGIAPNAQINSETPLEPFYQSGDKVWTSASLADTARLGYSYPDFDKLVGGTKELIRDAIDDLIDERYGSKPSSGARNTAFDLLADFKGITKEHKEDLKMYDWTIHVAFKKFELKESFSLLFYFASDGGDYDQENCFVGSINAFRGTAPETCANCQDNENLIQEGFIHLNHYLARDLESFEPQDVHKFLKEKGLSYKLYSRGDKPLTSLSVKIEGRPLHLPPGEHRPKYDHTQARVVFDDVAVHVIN
Put plainly: Competitive inhibition of mushroom tyrosinase using L-tyrosine as substrate assessed as dopachrome production after 30 mins by Lineweaver-Burk plot analysis.

Series [5] in a line: Cytotoxicity against mouse B16F10 cells assessed as cell viability at 5 uM after 24 hrs by MTT assay relative to control. The format is cell-based, B16-F10. The note with it: read-out: Activity.
Series [6] deals with T2, Tyrosinase (Mus musculus) (UniProt P11344).
T2 sequence (whole entry): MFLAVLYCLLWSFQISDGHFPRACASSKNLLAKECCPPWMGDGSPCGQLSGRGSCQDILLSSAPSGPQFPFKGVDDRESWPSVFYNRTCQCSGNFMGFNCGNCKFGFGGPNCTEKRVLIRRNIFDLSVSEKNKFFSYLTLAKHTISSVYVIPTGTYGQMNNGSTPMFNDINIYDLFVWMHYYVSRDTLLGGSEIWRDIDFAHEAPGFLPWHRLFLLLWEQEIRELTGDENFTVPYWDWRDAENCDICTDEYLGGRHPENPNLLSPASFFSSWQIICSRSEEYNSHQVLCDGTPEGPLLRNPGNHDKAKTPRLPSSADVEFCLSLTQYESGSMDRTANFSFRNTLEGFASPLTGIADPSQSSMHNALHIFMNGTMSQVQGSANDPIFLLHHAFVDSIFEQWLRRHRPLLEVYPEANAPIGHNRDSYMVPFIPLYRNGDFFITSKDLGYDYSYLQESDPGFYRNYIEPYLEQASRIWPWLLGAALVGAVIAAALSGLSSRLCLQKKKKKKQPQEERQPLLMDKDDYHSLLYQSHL
Put plainly: Inhibition of tyrosinase in alpha-MSH-stimulated mouse B16F10 cells assessed as L-DOPA oxidation after 24 hrs. Type of series: cell-based. The note with it: B16-F10.

Series [7] relates to B16-F10. The experiment in a line: Inhibition of alpha-MSH-mediated melanin biosynthesis in mouse B16F10 cells after 24 hrs. The format is functional, cell-based.

For the compound `O=c1cc(CO)occ1O`, the inhibition result in the series with B16-F10 [1] was “Active”.

Regarding `N#C/C(=C\c1ccc(O)c(O)c1)C(N)=O`, the viability at 24 h, 25 µM in series [2] was found to be 96.9%. Further, the viability at 24 h, 10 µM in series [3] is 98.6%. The inhibition entry (in series [4]; in series [6]; in the series on B16-F10 [7]) was “Dose-dependent effect” throughout. Besides, the viability at 24 h, 5 µM in series [5] stood at 99.6%.
